Measurements published in patent publication US8822486B2, “Spiropiperidine compounds” (Eli Lilly and Company, priority 2009, dated 2014).
pEC50: −log10 of the molar value.

Columns and labels:
[1] = system: mouse insulinoma cell line Min6; experiment: Glucose Dependent Insulin Secretion (GDIS) assay in Min6 cells; type: cell-based; settings: 1 μM plus 25 mM glucose compared to 25 mM glucose alone; 2 h incubation
Experimental: Because activation of GPR40 is known to result in insulin secretion which is dependent on high glucose concentrations, two separate assay systems (insulinoma cell line and primary rodent islets) are developed to further characterize compounds that are known to increase intracellular calcium in the GPR40 primary assay discussed above.
GDIS assays are performed using the mouse insulinoma cell line Min6. Min6 cells are maintained in Dulbecco's Modified Eagle's Medium (DMEM) containing non-essential amino acids, 10% FBS, […] 2-mercaptoethanol and 1% penicillin and streptomycin at 37° C. plus 5% CO2 On the day of the experiment, the cells are washed twice with 200 μl of pre-warmed Krebs-ringer buffer without glucose. Addition of 200 μL of pre-warmed Krebs-ringer buffer containing 2.5 mM glucose is used to starve the cells followed by the addition of compounds in the presence of a high concentration of glucose (25 mM). The plate is incubated at 37° C. for 2 hours. At the end of the 2 h incubation, the supernatant is gently transferred into a Millipore filter plate and spun at 200 g (gravitational force) for 3 minutes. Insulin is assayed using a Mercodia Insulin estimation kit.

human GPR40 = molecular target: T1, human GPR40 (Homo sapiens, UniProt O14842); experiment: Calcium Flux Primary Assay; type: cell-based
T1 construct: expressed in transfected cells; host or cells: HEK293
Experimental: Calcium Flux Primary Assay
HEK293 cells over expressing the human GPR40 cDNA maintained in Dulbecco's modified Eagle's medium with F12 medium in 3:1 ratio supplemented with 10% FBS and 800 μg/ml geneticin at 37° C. and 5% CO2 are employed for the study. Agonist assays are performed using a Calcium 4 Dye assay kit (Molecular Devices) in the presence (0.1%) or absence of fatty acid free BSA in the assay buffer (1×HBSS (Hank's Balanced Salt Solution) & 20 mM HEPES (4-(2-hydroxyethyl)-1-piperazineethanesulfonic acid). Receptor activation is measured as an increase in intracellular calcium using the Fluorometric Imaging Plate Reader (FLIPR). Maximum change in fluorescence over the base line is used to determine agonist response. EC50 (effective concentration at half the maximal response) value of the compound is calculated using Excel Fit software (version 4; IDBS) by plotting concentration vs relative fluorescence units (RFUs).

PPARδ = molecular target: T2, PPARδ (Homo sapiens, UniProt Q03181); experiment: PPARδ binding assay (SPA); settings: concentrations up to 10 μM
T2 construct: made in house; host or cells: HEK293 (cell lysates)
T2 sequence (Q03181 1-441): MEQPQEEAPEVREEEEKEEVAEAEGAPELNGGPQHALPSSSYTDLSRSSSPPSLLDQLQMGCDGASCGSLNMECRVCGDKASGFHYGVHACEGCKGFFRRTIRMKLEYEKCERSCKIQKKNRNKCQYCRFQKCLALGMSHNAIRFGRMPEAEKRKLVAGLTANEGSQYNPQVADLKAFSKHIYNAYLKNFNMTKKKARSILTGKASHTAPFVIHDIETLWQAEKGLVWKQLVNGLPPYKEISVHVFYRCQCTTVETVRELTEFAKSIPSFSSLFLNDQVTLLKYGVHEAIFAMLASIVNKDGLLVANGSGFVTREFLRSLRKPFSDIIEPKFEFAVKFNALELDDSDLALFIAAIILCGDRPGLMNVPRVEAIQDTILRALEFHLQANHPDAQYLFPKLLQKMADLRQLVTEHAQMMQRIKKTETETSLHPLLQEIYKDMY
T2 sequence (P19793 1-462 partner): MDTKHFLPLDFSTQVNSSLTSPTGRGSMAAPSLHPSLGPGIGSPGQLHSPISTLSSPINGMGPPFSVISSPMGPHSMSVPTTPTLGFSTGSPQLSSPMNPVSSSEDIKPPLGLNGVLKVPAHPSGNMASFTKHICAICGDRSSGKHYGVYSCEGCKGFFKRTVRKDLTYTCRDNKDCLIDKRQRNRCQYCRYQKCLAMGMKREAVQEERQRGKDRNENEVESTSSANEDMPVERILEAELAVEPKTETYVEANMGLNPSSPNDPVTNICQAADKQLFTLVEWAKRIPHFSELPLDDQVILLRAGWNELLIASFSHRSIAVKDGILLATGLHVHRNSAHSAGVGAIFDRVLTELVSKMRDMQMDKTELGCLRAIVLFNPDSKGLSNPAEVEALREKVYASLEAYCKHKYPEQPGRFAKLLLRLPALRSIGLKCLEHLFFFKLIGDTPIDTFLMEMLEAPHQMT
Experimental: Because GPR40 is known to be activated by ligands to PPARγ exemplified compounds are examined in PPARα, PPARδ, and PPARγ binding and functional assays to determine the selectivity of exemplified compounds for GPR40. Compounds exemplified herein are tested essentially as described below for PPAR binding and generally have binding values greater than 1000 nM with 10 μM concentrations of test compound and are thus considered negative for PPAR activity.
Binding affinities of compounds for the PPAR α, δ, and γ receptors are assessed using Scintillation Proximity Assay (SPA) technology. Biotinylated oligonucleotide Direct Repeat 2 (DR2) is used for binding the receptors to Yttrium silicate streptavidin-coated SPA beads. […] Non-specific binding is determined in the presence of 10,000 nM of the unlabeled PPAR α/δ dual agonist reference compound for the alpha and delta receptor assays and the PPARγ agonist reference compound for the gamma receptor assay. The binding reaction (100 μl per well in a 96 well [Costar 3632] plate) is incubated for 10 h and counted disintegration per minutes (dpm) on a Wallac Microbeta. Receptor binding affinity (IC50) for the compounds is determined by fitting an 11 point concentration-response curve with a 4-paramater logistic equation. K, is determined from the IC50 using the Cheng-Prussoff equation and Kd determined by saturation binding. […]

T1 sequence (O14842 whole entry): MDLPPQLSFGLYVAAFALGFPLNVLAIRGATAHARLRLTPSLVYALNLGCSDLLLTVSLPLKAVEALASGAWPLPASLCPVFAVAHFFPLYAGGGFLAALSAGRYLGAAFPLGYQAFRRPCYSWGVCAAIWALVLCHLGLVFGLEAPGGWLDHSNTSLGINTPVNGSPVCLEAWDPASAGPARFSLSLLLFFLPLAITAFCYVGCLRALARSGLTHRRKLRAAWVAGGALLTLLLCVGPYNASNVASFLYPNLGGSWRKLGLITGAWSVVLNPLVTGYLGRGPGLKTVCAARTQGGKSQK

CC#C[C@@H](CC(=O)O)c1ccc(OCc2ccc(CN3CCC4(C=Cc5ccccc54)CC3)s2)cc1 [Example 1, (3S)-3-[4-[[5-(Spiro[indene-1,4′-piperidine]-1′-ylmethyl)-2-thienyl]methoxy]phenyl]hex-4-ynoic acid]
increase in insulin secretion [1]: two-fold increase
pEC50 (human GPR40; HEK293 cells over expressing human GPR40, intracellular calcium, FLIPR): 6.94
Percent efficacy (human GPR40; maximal response compared to the natural ligand, linoleic acid): 91+/−9%
PPARδ binding (PPARδ): no binding is detected
